Source: patent US20050288347A1, “Certain triazole-based compounds, compositions, and uses thereof” (priority 2004, published 2005)
“Also recorded” adds a separate entry of the source.

What follows are compounds tested on protein kinase (assay: HTS ATP-utilizing enzyme assay, off-chip mobility-shift format (Caliper HTS 250)). Conditions: test compound 10 μM; active = activity greater than three-sigma from the mean of the predominately inactive population for that enzyme.
Assay type: biochemical, human
Method in brief: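 Kinase reactions ran 2.5 h at 20 to 22 °C with test compound at 10 μM, in a HEPES pH 7.5 master buffer containing Triton X-100 and BSA. Peptide substrate and phosphorylated product separated by mobility shift; inhibition normalized to DMSO (0%) and EDTA (100%) controls, with three-sigma thresholds for hits.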

SMILES | protein kinase against which the compound exhibits inhibitory activity (Table 3)
Cn1cnnc1SCc1csc(Cc2ccc(Cl)c(Cl)c2)n1 | GSK3-α
O=[N+]([O-])c1ccc(-c2nnc(CSc3nncn3-c3ccccn3)o2)cc1 | PDGFRR-α
Cc1ccc(CSc2nnc(CSc3nc(C)cc(C)n3)n2Cc2ccco2)cc1 | CDK2-cyclinA
Cc1cc(C)nc(SCc2nnc(SCc3ccccc3)n2Cc2ccco2)n1 | CDK1
Cc1ccc(-c2nnc(CSc3nnc(COc4ccccc4)n3-c3ccc(C)cc3)o2)cc1 | GSK3-α
COc1ccc(-n2c(CNc3cc(C(F)(F)F)ccc3Cl)nnc2SCc2ccccc2Cl)cc1 | CDK1
Cc1ccc(-n2c(SCc3nnc(-c4ccccc4)o3)nnc2-c2ccncc2)cc1 | GSK3-β; also recorded: GSK3-α
Cc1ccc(NCc2nnc(SCc3nnc(-c4ccccc4)o3)n2CC2CCCO2)c(C)c1 (stereo not drawn) | SYK
CC(C)(C)c1ccc(CSc2nnc(COc3ccc(Cl)cc3)n2-c2ccccc2)cc1 | SYK
COCCCn1c(SCc2ccc(Cl)cc2)nnc1-c1ccc(C(C)(C)C)cc1 | DAPK1
Clc1cccc(NCc2nnc(SCc3ccccc3Cl)n2-c2ccccc2)c1 | LCK
Clc1cccc(NCc2nnc(SCc3ccc(Cl)cc3Cl)n2-c2ccccc2)c1 | LCK
COc1cc(CSc2nnc[nH]2)c(OC)cc1CSc1nnc[nH]1 | CSK and LCK
Cc1ccc(-c2nnc(CSc3nnc(-c4ccc(S(=O)(=O)N5CCOCC5)cc4)n3C)o2)cc1 | GSK3-β; also recorded: GSK3-α
COCCCn1c(SCc2ccc(C(C)(C)C)cc2)nnc1-c1ccncc1 | DYRK2
CC(C)(C)c1ccc(CSc2nnc(-c3ccncc3)n2Cc2ccco2)cc1 | MAPKAPK-2
O=C(O)c1ccc(CSc2nnc(-c3ccncc3)n2Cc2ccco2)cc1 | GSK3-α; also recorded: GSK3-β
CCn1c(SCc2cc(=O)[nH]c3ccccc23)nnc1-c1cc2ccccc2cc1O | AURORA-A
Cn1c(COc2ccccc2)nnc1SCc1cc(=O)[nH]c2ccccc12 | GSK3a
Cc1ccc(-n2c(SCc3ccc(C(=O)O)cc3)nnc2-c2ccc(Cl)cc2)cc1 | SYK
COc1ccc(NCc2nnc(SCc3ccc([N+](=O)[O-])cc3)n2C)cc1 | FYN
Cc1ccc(S(=O)(=O)N(Cc2nnc(SCc3ccc(Cl)cc3Cl)n2-c2ccccc2)c2cccc(Cl)c2)cc1 | LCK
CC1=CC(C)=NCN1SCc1nnc(SCc2ccc([N+](=O)[O-])cc2)n1Cc1ccco1 | LYNA
Cc1ccc(NCc2nnc(SCc3nnc(-c4ccccc4)o3)n2Cc2ccco2)c(C)c1 | AURORA-A
CCn1c(CNc2ccc(OC)cc2)nnc1SCc1c(F)cccc1Cl | PDGFRR-α and FYN and FLT-3
Cn1c(CNc2ccc(F)cc2)nnc1SCc1c(Cl)cccc1Cl | GSK3-β; also recorded: GSK3-α
Cc1cccc(NCc2nnc(SCc3ccc(Cl)cc3)n2-c2ccccc2)c1 | PDGFRR-α and MSK2
COc1ccc(NCc2nnc(SCc3ccc(Cl)cc3)n2-c2ccccc2)cc1 | PDGFRR-α and FYN
Cc1ccc(NCc2nnc(SCc3ccc(C(C)(C)C)cc3)n2-c2ccc(C)cc2)cc1 | AURORA-A and SYK
Cc1ccc(NCc2nnc(SCc3ccccc3)n2C)cc1 | AURORA-A
